In patent publication US11591288B2, “Compositions and methods for treating atherosclerotic cardiovascular disease” (GAVISH-GALILEE BIO APPLICATIONS LTD., priority 2017, dated 2023):

Columns and labels:
[1] = tested on: Human umbilical vein endothelial cells (HUVECs); assay: HDL-induced endothelial NO release, DAN assay; assay type: cell-based; settings: HDL 50 μg/ml preincubated 3 h with 10, 20, 50 μg/ml; HUVECs 2 h
Protocol: HUVECs were stimulated for 2 h with HDL (50 μg/ml) preincubated with DMSO, lyso-DGTS and S1P at final concentrations of 10, 20, and 50 μg/ml for 3 h. Media were then collected and treated with nitrate reductase followed by analysis using the DAN assay. Data are expressed as NO concentration (μM) released by the cells. Each experiment was repeated separately at least three times. *p<0.05, ***p<0.0001 related to the control (HDL without lyso-DGTS or S1P). Statistics were analyzed using one-way annova Graphpad prism 5 software.
Human umbilical vein endothelial cells (HUVECs) were incubated for 2 hours with HDL preincubated with different concentration of lyso-DGTS or S1P for 3 hours, and NO production determined using 2,3-diaminonapthalene (DAN) assay.

J774A.1 macrophages = assay: rePON1 influx to J774A.1 macrophages (FITC-rePON1, FACS); assay type: cell-based, murine; settings: 16 h, 61.62 for rePON1-FITC alone
Protocol: rePON1 (2 mg/ml) was reacted with fluorescein isothiocyanate (FITC) (200 μg/ml) for 1 h at 37° C. in the dark in borate buffer (PH=8.6). Glycine 10 mM was added and the solution was dialyzed using PBS buffer to remove FITC excess. RePON1-FITC conjugate (50 μg/ml) was incubated with lyso-DGTS at different concentration (10, 20, 50 and 100 μg/ml) into RPMI for 2 h. The solution was added to J774A.1 macrophages and incubated for 16 h. Cells were washed three times with sterile PBS buffer (0.1% sodium azid, 0.2% bovine serum albumin (BSA)), harvested in PBS (buffer) and analyzed by fluorescence-activated cell sorting (FACS) (Facscalibur 4ca). Results are presented as mean fluorescence intensity (MFI).
RePON1 was labeled with FITC and incubated with lyso-DGTS at different concentrations (10, 20, 50, and 100 μg/ml) for 2 h. Each solution was added to J774A.1 macrophages and incubated at 37° C. for 16 h, and then analyzed by fluorescence-activated cell sorting (FACS). […] The MFI increased from 61.62 for rePON1-FITS alone to 131.02, 368.61, 386.46, and 517.45 for rePON1 incubated with lyso-DGTS at 10, 20, 50, and 100 μg/ml, respectively (FIG. 6B).

rePON1 = rePON1 arylesterase activity (phenyl acetate assay) after incubation with lyso-DGTS; assay type: biochemical; settings: 0-100 μg/ml lyso-DGTS, 2 or 4 h, 37° C.
Protocol: To 200 μl of rePON1 solution (5 μg/ml) in Tris-HCl buffer pH=8.4 was added 1 μl of lyso-DGTS dissolved in dimethyl sulfoxide (DMSO) to a final concentration of 1, 5, 10, 50, and 100 μg/ml. 1 μl DMSO was added to the control rePON1 solution. The mixtures were incubated at 37° C. for 2, 4, 24 or 48 h.
10 μl from each solution were taken to a UV 96-well microplate wells containing 90 μl Tris-HCL buffer pH=8.4 with 1 mM CaCl2 (activity buffer). Then 100 μl phenyl acetate, 2 mM in the activity buffer was added (prepared from a stock of 100 mM phenyl acetate in DMSO). Phenyl acetate hydrolysis rate was measured at 270 nm, once in 25 seconds, for 15 minutes using SpectraMax M2 Reader. One unit of esterase activity was equal to the hydrolysis of 1 μmol of phenyl acetate/min. Lactonase and esterase unit activity were calculated by the following equation: Unit=slope (mOD/min)×5(per ml)×666.7(dilution)/700. Human Serum PON1 Lactonase Activity
The effect of lyso-DGTS on lactonase and arylesterase activities of rePON1 was examined. rePON1 (5 μg/ml in Tris buffer pH=8.4) was incubated with different concentrations of lyso-DGTS for 2, 4, 24, and 48 h at 37° C., and its lactonase and aryesterase activities were measured using dihydrocoumarin and phenyl acetate assays, respectively.

[2] = Clinical parameters of the in-vivo experiment (HFD fed Balb/c mice); design: unit not given here; settings: lyso-DGTS via s.c. osmotic mini-pump, 28 days; for Glucose: p < 0.05 related to vehicle group
Protocol: Eight weeks old Balb/c mice where fed with normal rodent diet (the “non” group n=11) for 12 weeks or with high-fat diet (HFD) for 8 weeks. After 8 weeks, the HFD group was divided into two groups both treated via osmotic mini-pumps implanted subcutaneously: (1) vehicle group (the pumps contained 100 μl of DDW+2% Tween 80; n=9); (2) Lyso-DGTS group (the pumps contained 100 μl lyso-DGTS 1.4 mg/ml in DDW+2% Tween 80; n=1). The mice then continued with the same diet for another 4 weeks. The pumps injected 3.5 μl solution each day for 28 days until the end of the experiment. Blood was drawn and centrifuged at 2000 rpm for five minutes, and the serum was stored at −70° C. until the analyses. Clinical parameters were measured. Serum diluted by 20 with PBS and PON1 lactonase activity was measured using dihydrocumarine assay.
The effect of lyso-DGTS on lactonase PON1 activity was examined using Balb/c mice fed with HFD. Three groups of Balb/c mice were used: 1) the “non” group […] mice which was fed with normal rodent diet for 12 weeks; 2) the “vehicle” group n=9 mice which was fed with HFD for 8 weeks and then continued with the same diet for another 4 weeks with the injection of DDW+2% Tween via osmotic mini-pumps implanted subcutaneously; and 3) the lyso-DGTS group n=1 mice which was fed similar to the vehicle group and injected with lyso-DGTS at 1.43 mg/ml in DDW+2% Tween 80 (FIG. 14). At the end of the protocol, blood was withdrawn and clinical parameters and lactonase PON1 activity were measured. […] Lactonase PON1 activity of the mice serum was measured using dehydrocumarine assay.

PON1 = PON1 (Homo sapiens, UniProt P27169); assay: PON1 binding to HDL (ratio HDL-bound PON1 vs. free PON1); settings: data not shown
Sequence of PON1 (P27169 whole entry, species assumed): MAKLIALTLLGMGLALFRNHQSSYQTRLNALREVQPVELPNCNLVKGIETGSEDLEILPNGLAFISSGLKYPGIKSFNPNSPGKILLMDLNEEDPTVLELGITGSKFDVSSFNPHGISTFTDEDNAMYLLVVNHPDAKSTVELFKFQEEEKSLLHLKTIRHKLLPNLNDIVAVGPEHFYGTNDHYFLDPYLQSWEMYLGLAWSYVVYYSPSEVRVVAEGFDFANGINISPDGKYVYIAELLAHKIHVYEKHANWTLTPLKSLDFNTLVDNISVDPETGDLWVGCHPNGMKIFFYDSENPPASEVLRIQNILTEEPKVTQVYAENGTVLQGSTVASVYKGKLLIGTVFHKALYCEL

CC/C=C\C/C=C\C/C=C\C/C=C\C/C=C\CCCC(=O)OCC(O)COCCC(C(=O)[O-])[N+](C)(C)C (stereo not drawn) [lyso-DGTS, lyso-diacylglyceryltrimethylhornmoserine]
effect on HDL ability to induce endothelial NO release [1]: significantly increased the HDL ability to induce endothelial NO release at a dose dependent manner
mean fluorescence intensity (MFI) of FITC-rePON1 in cells (J774A.1 macrophages; 10 μg/ml lyso-DGTS): 131.02
mean fluorescence intensity (MFI) of FITC-rePON1 in cells (J774A.1 macrophages; 20 μg/ml lyso-DGTS): 368.61
mean fluorescence intensity (MFI) of FITC-rePON1 in cells (J774A.1 macrophages; 50 μg/ml lyso-DGTS): 386.46
mean fluorescence intensity (MFI) of FITC-rePON1 in cells (J774A.1 macrophages; 100 μg/ml lyso-DGTS): 517.45
effect on rePON1 arylesterase activity (rePON1): increases rePON1 lactonase and arylesterase activities in a dose and time dependent manner
Cholesterol [2]: 4.03 ± 0.40
HDL [2]: 4.37 ± 0.42
Triglycerides [2]: 0.84 ± 0.26
Glucose [2]: 5.99±1.4
Glucose ([2]; listed as Lyso-DGTS): 5.99 ± 1.4
ratio between HDLbound-PON1 vs. free-PON1 (PON1): did not change
